# Assay results reported in US20060069132A1, “Azolecarboxamide herbicides” (priority 2004, published 2006).
# What was measured:
# rice [1] = test: Test B pre-/postemergence herbicide test; assay type: in vivo, Oryza sativa; details: preemergence
# Method in brief: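 Plants compared with untreated controls 13–15 days post-treatment and given a visual 0–100 injury score. Applications: preemergence to seeds; postemergence at 1- to 4-leaf (2–18 cm); paddy species flooded, 2-leaf stage. Vehicle non-phytotoxic, surfactant included.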
# giant foxtail = test: Test B pre-/postemergence herbicide test; assay type: in vivo, Setaria faberi; details: for Plant response rating, Foxtail, Giant: preemergence; for Foxtail, Giant plant response rating: postemergence, visual rating, scale 0 (no effect) to 100 (complete control)
# Method in brief: (§1)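 Evaluation is visual, comparing treated with control plants on a scale where 0 means no effect and 100 means full control. Treatments were preemergence, or postemergence on seedlings 2–18 cm tall, and held 13–15 days in the greenhouse.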
# wild oat = test: Test B postemergence herbicide test; assay type: in vivo, Avena fatua; details: postemergence, visual rating, scale 0 (no effect) to 100 (complete control)
# Method in brief: (§2)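 After treating 2-leaf paddy plants or 2–18 cm postemergence plants (1 to 4 leaves) with formulated chemical, researchers kept them in a greenhouse for 13–15 days. Effects were judged visually versus controls: 0 indicates none, 100 total control.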
# rice [2] = test: Test C flooded paddy test; assay type: in vivo, Oryza sativa
# Method in brief: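 Postemergence sprays applied to plants 2 to 18 cm tall (1- to 4-leaf stage); paddy species grown to 2-leaf stage under flooding. After 12 to 14 days in greenhouse, visual rating versus untreated controls on 0–100 scale (0 no effect, 100 complete control).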
# large crabgrass = test: Test B pre-/postemergence herbicide test; assay type: in vivo, Digitaria sanguinalis; details: for Plant response rating, Crabgrass, Large: preemergence; for Crabgrass, Large plant response rating: postemergence, visual rating, scale 0 (no effect) to 100 (complete control)
# Method in brief: as §1
# cocklebur = test: Test B pre-/postemergence herbicide test; assay type: in vivo, Xanthium strumarium; details: for Plant response rating, Cocklebur: preemergence; for Cocklebur plant response rating: postemergence, visual rating, scale 0 (no effect) to 100 (complete control)
# Method in brief: (§3)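 Visual rating, 0 (no effect) to 100 (complete control), versus untreated controls after 13–15 d in greenhouse. Pre- and postemergence applications (postemergence plants 2–18 cm, 1–4 leaves); flooded paddy arm at 2-leaf stage. Compounds in non-phytotoxic solvent plus surfactant.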
# ducksalad [3] = test: Test C flooded paddy test; assay type: in vivo, Heteranthera limosa
# morningglory = test: Test B pre-/postemergence herbicide test; assay type: in vivo, Ipomoea coccinea; details: for Plant response rating, Morningglory: preemergence; for Morningglory plant response rating: postemergence, visual rating, scale 0 (no effect) to 100 (complete control)
# Method in brief: as §3
# ducksalad [4] = test: Test B flooded paddy test; assay type: in vivo, Heteranthera limosa; details: 1000 g ai/ha, visual rating, scale 0 to 100 (0 no effect, 100 complete control), 13 to 15 days
# Method in brief: (§4)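 Visual ratings, 0 (no effect) to 100 (complete control), made versus controls after 13–15 d greenhouse. Paddy plants treated at 2-leaf stage; postemergence plants at 1- to 4-leaf stage, 2–18 cm tall.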
# [5] = test system: small flower umbrella sedge; test: Test B flooded paddy test; assay type: in vivo, Cyperus difformis; details: 1000 g ai/ha, visual rating, scale 0 to 100 (0 no effect, 100 complete control), 13 to 15 days
# Method in brief: as §4
# rice [6] = test: Test B flooded paddy test; assay type: in vivo, Oryza sativa; details: 1000 g ai/ha, visual rating, scale 0 to 100 (0 no effect, 100 complete control), 13 to 15 days
# Method in brief: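 Each value is a visual 0–100 response rating taken against controls 13 to 15 days after treatment in the greenhouse. Plants received formulated chemical postemergence at the 1- to 4-leaf stage or, in flooded paddy, at the 2-leaf stage.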
# barnyardgrass [7] = test: Test B flooded paddy test; assay type: in vivo, Echinochloa crus-galli; details: 1000 g ai/ha, visual rating, scale 0 to 100 (0 no effect, 100 complete control), 13 to 15 days
# Method in brief: as §4
# Surinam grass = test: Test B pre-/postemergence herbicide test; assay type: in vivo, Urochloa decumbens; details: for Plant response rating, Surinam Grass: preemergence; for Surinam Grass plant response rating: postemergence, visual rating, scale 0 (no effect) to 100 (complete control)
# Method in brief: as §1
# corn = test: Test B pre-/postemergence herbicide test; assay type: in vivo, Zea mays; details: for Plant response rating, Corn: preemergence; for Corn plant response rating: postemergence, visual rating, scale 0 (no effect) to 100 (complete control)
# Method in brief: as §1
# barnyardgrass [8] = test: Test B pre-/postemergence herbicide test; assay type: in vivo, Echinochloa crus-galli; details: for Plant response rating, Barnyardgrass: preemergence; for Barnyardgrass plant response rating: postemergence, visual rating, scale 0 (no effect) to 100 (complete control)
# Method in brief: as §3
# lambsquarters = test: Test B pre-/postemergence herbicide test; assay type: in vivo, Chenopodium album; details: for Plant response rating, Lambsquarters: preemergence; for Lambsquarters plant response rating: postemergence, visual rating, scale 0 (no effect) to 100 (complete control)
# Method in brief: as §1
# wheat = test: Test B postemergence herbicide test; assay type: in vivo, Triticum aestivum; design: key to Wheat plant response rating: 0 = no effect, 100 = complete control; details: postemergence, 500 g ai/ha; visual rating, scale 0 (no effect) to 100 (complete control)
# Method in brief: as §2
# pigweed = test: Test B pre-/postemergence herbicide test; assay type: in vivo, Amaranthus retroflexus; details: for Plant response rating, Pigweed: preemergence; for Pigweed plant response rating: postemergence, visual rating, scale 0 (no effect) to 100 (complete control)
# Method in brief: as §1
# [9] = test system: smallflower umbrella sedge; test: Test C flooded paddy test; assay type: in vivo, Cyperus difformis
# barnyardgrass [10] = test: Test C flooded paddy test; assay type: in vivo, Echinochloa crus-galli
# Method in brief: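 Weeds and wheat were sprayed after emergence, at a height of 2 to 18 cm (1–4 leaves), and paddy barnyardgrass was flooded and treated at two leaves. Assessment took place 12–14 days later in the greenhouse on a 0-to-100 visual control scale. A dash means no result was obtained.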
# velvetleaf = test: Test B pre-/postemergence herbicide test; assay type: in vivo, Abutilon theophrasti; details: for Plant response rating, Velvetleaf: preemergence; for Velvetleaf plant response rating: postemergence, visual rating, scale 0 (no effect) to 100 (complete control)
# Method in brief: as §1
# blackgrass = test: Test B postemergence herbicide test; assay type: in vivo, Alopecurus myosuroides; details: postemergence, visual rating, scale 0 (no effect) to 100 (complete control)
# Method in brief: as §4
# [11] = 500 g ai/ha, visual rating 0-100, 0 no effect, 100 complete control
# [12] = 125 g ai/ha, 0 to 100 scale, 0 is no effect, 100 is complete control
# [13] = 62 g ai/ha, scale 0 to 100 (0 no effect, 100 complete control)
# [14] = 125 g ai/ha, scale 0 to 100 (0 no effect, 100 complete control)
# [15] = 250 g ai/ha, scale of 0 to 100, 0 is no effect, 100 is complete control
# [16] = 500 g ai/ha, visual rating after 12 to 14 days, scale 0 to 100 (0 no effect, 100 complete control)
smiles,measurement,setting,value
CCn1nc(C(C)(C)C)cc1C(=O)Nc1cccc(C(=O)N(C)CC#N)n1 [Compound 158],"Plant response rating, Rice",rice [1]; [11],90
same,"Plant response rating, Rice",rice [1]; [12],80
same,"Plant response rating, Foxtail, Giant",giant foxtail; [11],100
same,"Foxtail, Giant plant response rating",giant foxtail; 125 g ai/ha,0
same,"Foxtail, Giant plant response rating",giant foxtail; 500 g ai/ha,30
same,"Plant response rating, Foxtail, Giant",giant foxtail; [12],50
same,"Oat, Wild plant response rating",wild oat; 125 g ai/ha,30
same,"Oat, Wild plant response rating",wild oat; 500 g ai/ha,40
same,Rice plant response rating,rice [2]; [13],0
same,Rice plant response rating,rice [2]; [14],0
same,Rice plant response rating,rice [2]; [15],35
same,"Plant response rating, Rice",rice [2]; [16],60
same,"Plant response rating, Crabgrass, Large",large crabgrass; [11],100
same,"Crabgrass, Large plant response rating",large crabgrass; 125 g ai/ha,30
same,"Crabgrass, Large plant response rating",large crabgrass; 500 g ai/ha,30
same,"Plant response rating, Crabgrass, Large",large crabgrass; [12],80
same,"Plant response rating, Cocklebur",cocklebur; [11],40
same,Cocklebur plant response rating,cocklebur; 125 g ai/ha,20
same,Cocklebur plant response rating,cocklebur; 500 g ai/ha,70
same,"Plant response rating, Cocklebur",cocklebur; [12],40
same,Ducksalad plant response rating,ducksalad [3]; [13],0
same,Ducksalad plant response rating,ducksalad [3]; [14],0
same,Ducksalad plant response rating,ducksalad [3]; [15],20
same,"Plant response rating, Ducksalad",ducksalad [3]; [16],50
same,"Plant response rating, Morningglory",morningglory; [11],50
same,Morningglory plant response rating,morningglory; 125 g ai/ha,0
same,Morningglory plant response rating,morningglory; 500 g ai/ha,50
same,"Plant response rating, Morningglory",morningglory; [12],50
same,Ducksalad plant response rating,ducksalad [4],90
same,"Sedge, Umbrella plant response rating",[5],80
same,Rice plant response rating,rice [6],60
same,Barnyardgrass plant response rating,barnyardgrass [7],70
same,"Plant response rating, Surinam Grass",Surinam grass; [11],90
same,Surinam Grass plant response rating,Surinam grass; 125 g ai/ha,0
same,Surinam Grass plant response rating,Surinam grass; 500 g ai/ha,0
same,"Plant response rating, Surinam Grass",Surinam grass; [12],30
same,"Plant response rating, Corn",corn; [11],60
same,Corn plant response rating,corn; 125 g ai/ha,0
same,Corn plant response rating,corn; 500 g ai/ha,10
same,"Plant response rating, Corn",corn; [12],0
same,"Plant response rating, Barnyardgrass",barnyardgrass [8]; [11],100
same,Barnyardgrass plant response rating,barnyardgrass [8]; 125 g ai/ha,0
same,Barnyardgrass plant response rating,barnyardgrass [8]; 500 g ai/ha,0
same,"Plant response rating, Barnyardgrass",barnyardgrass [8]; [12],70
same,"Plant response rating, Lambsquarters",lambsquarters; [11],100
same,Lambsquarters plant response rating,lambsquarters; 125 g ai/ha,80
same,Lambsquarters plant response rating,lambsquarters; 500 g ai/ha,80
same,"Plant response rating, Lambsquarters",lambsquarters; [12],70
same,Wheat plant response rating,wheat,10
same,"Plant response rating, Pigweed",pigweed; [11],100
same,Pigweed plant response rating,pigweed; 125 g ai/ha,50
same,Pigweed plant response rating,pigweed; 500 g ai/ha,70
same,"Plant response rating, Pigweed",pigweed; [12],100
same,"Sedge, Umbrella plant response rating",[9]; [13],15
same,"Sedge, Umbrella plant response rating",[9]; [14],45
same,"Sedge, Umbrella plant response rating",[9]; [15],70
same,"Plant response rating, Sedge, Umbrella",[9]; [16],80
same,Barnyardgrass plant response rating,barnyardgrass [10]; [13],0
same,Barnyardgrass plant response rating,"barnyardgrass [10]; 125 g ai/ha, scale of 0 to 100, 0 is no effect, 100 is complete control",0
same,Barnyardgrass plant response rating,barnyardgrass [10]; [15],15
same,"Plant response rating, Barnyardgrass",barnyardgrass [10]; [16],35
same,"Plant response rating, Velvetleaf",velvetleaf; [11],80
same,Velvetleaf plant response rating,velvetleaf; 125 g ai/ha,50
same,Velvetleaf plant response rating,velvetleaf; 500 g ai/ha,50
same,"Plant response rating, Velvetleaf",velvetleaf; [12],50
same,Blackgrass plant response rating,blackgrass; 125 g ai/ha,20
same,Blackgrass plant response rating,blackgrass; 500 g ai/ha,30
